Data set [1] is described as follows: Stability in simulated gastric fluid after 0.2 mins. The data set is classed as ADME. Conditions: read-out: Stability.
For a further data set, the target named is T1, dUTP pyrophosphatase (Plasmodium falciparum 3D7, UniProt Q8II92).
T1 sequence (Q8II92 whole entry): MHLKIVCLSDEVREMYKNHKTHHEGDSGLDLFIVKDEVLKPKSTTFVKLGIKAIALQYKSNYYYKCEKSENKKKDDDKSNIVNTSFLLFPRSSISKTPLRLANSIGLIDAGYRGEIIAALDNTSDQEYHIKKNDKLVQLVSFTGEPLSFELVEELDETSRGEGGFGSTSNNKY
The experiment in a line: Inhibition of Plasmodium falciparum dUTPase.

The target in data set [2] is T2, Deoxyuridine 5'-triphosphate nucleotidohydrolase, mitochondrial (Homo sapiens, UniProt P33316).
T2 sequence (P33316 whole entry): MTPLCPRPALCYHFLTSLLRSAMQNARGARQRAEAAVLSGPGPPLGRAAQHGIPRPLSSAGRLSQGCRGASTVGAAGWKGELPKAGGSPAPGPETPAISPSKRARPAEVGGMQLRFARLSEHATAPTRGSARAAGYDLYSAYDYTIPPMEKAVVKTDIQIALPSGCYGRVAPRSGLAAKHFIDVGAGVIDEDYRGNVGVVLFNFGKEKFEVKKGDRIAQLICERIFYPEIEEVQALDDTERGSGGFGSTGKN
The experiment in a line: Inhibition of human recombinant dUTPase.

A further data set relates to Plasmodium falciparum. Description: Antiplasmodial activity against Plasmodium falciparum. Type of data set: functional, organism-based.
In data set [3] the target is T3, dUTP pyrophosphatase (Plasmodium falciparum 3D7) (UniProt Q8II92).
T3 sequence (whole entry): T1 sequence (Q8II92 whole entry)
The experiment in a line: Selectivity index, human dUTPase/Plasmodium falciparum dUTPase.

The nature of data set [4]: Intrinsic clearance in human liver microsome. The data set is classed as ADME. Conditions: liver microsomes.
For another data set, the system named is L6. Description: Cytotoxicity against rat L6 cells. The data set is classed as functional, cell-based.
The nature of data set [5]: Stability in simulated gastric fluid after 150 mins. The data set is classed as ADME. Conditions: read-out: Stability.
A short description of data set [6]: Stability in simulated gastric fluid after 5 mins. Type of data set: ADME. Particulars: read-out: Stability.

These results are taken from ChEMBL document CHEMBL1138899, “Acyclic nucleoside analogues as inhibitors of Plasmodium falciparum dUTPase” (J Med Chem, 2006).

Bounds are passed on as bounds.

`O=c1ccn(CCCCO[Si](c2ccccc2)(c2ccccc2)c2ccccc2)c(=O)[nH]1`: the remaining at 12 s in data set [1] was under 2%. The Ki (commonly the equilibrium dissociation constant of an inhibitor or competing ligand from its target) on dUTP pyrophosphatase is 2.2 µM; in data set [2], over 1000 µM. Also, 0.36 µM corresponded to half-maximal inhibition in the data set with Plasmodium falciparum (IC50). This molecule displayed a Selectivity index in [3] of over 446. Moreover, the intrinsic metabolic clearance (microsomal CLint) (as a rule, the capacity of the preparation to metabolise the compound, expressed as a volume cleared per time) in data set [4] turned out to be 69 µL/min/mg.

In the case of `O=c1ccn(COCCOC(c2ccccc2)(c2ccccc2)c2ccccc2)c(=O)[nH]1`, the results for the inhibition constant (Ki) (at dUTP pyrophosphatase; in data set [2]) were 0.7 µM and 17 µM, respectively. Further, the IC50 (as a rule, the concentration needed to halve the response being measured) was found to be 0.9 µM with Plasmodium falciparum and 39 µM in the data set on L6. Also, the Selectivity index in data set [3] turned out to be 25. For the same molecule, the microsomal CLint in [4] was 96 µL/min/mg.

On to `O=c1ccn(CCCCCCNC(c2ccccc2)(c2ccccc2)c2ccccc2)c(=O)[nH]1`, for which the figures for the Ki (on dUTP pyrophosphatase; in data set [2]) were 1.8 µM and over 1000 µM, respectively. Moreover, the figures for the IC50 with Plasmodium falciparum and in the data set with L6 were 1.1 µM and 40 µM, respectively. For the same molecule, in data set [3], the Selectivity index is over 543.

For the molecule `O=c1ccn(C/C=C/COC(c2ccccc2)(c2ccccc2)c2ccccc2)c(=O)[nH]1`, the inhibition constant Ki is 0.6 µM on dUTP pyrophosphatase and over 1000 µM in data set [2]. Moreover, the IC50 worked out at 3.7 µM with Plasmodium falciparum and 34 µM in the data set on L6. In addition, the Selectivity index in [3] is over 1670.

With `O=c1ccn(CCCCNC(c2ccccc2)(c2ccccc2)c2ccccc2)c(=O)[nH]1`, in data set [2], the inhibition constant Ki is over 1000 µM. Besides, the IC50 turned out to be 3.8 µM with Plasmodium falciparum and 33 µM in the data set with L6. The same molecule displayed a Selectivity index in data set [3] of over 1110. In data set [4], this molecule displayed an intrinsic clearance (microsomal CLint) of 64 µL/min/mg. For the same molecule, in data set [5], the remaining at 2.5 h is 94%.

Take `O=c1ccn(CCCCOC(c2ccccc2)(c2ccccc2)c2ccccc2)c(=O)[nH]1`: the figures for the Ki (at dUTP pyrophosphatase; in data set [2]) were 1.6 µM and over 1000 µM, respectively. In addition, the IC50 turned out to be 4.9 µM in the data set with Plasmodium falciparum and 42 µM in the data set with L6. The Selectivity index in [3] was over 617. Moreover, in data set [4], the microsomal CLint was determined as 68 µL/min/mg. For the same molecule, the remaining at 5 min in data set [6] is 2%.

`O=c1ccn(CCCCCCO[Si](c2ccccc2)(c2ccccc2)c2ccccc2)c(=O)[nH]1`: the remaining at 12 s in data set [1] was under 2%. Moreover, the Ki on dUTP pyrophosphatase came to 1.7 µM; in data set [2] it was 383 µM. The figures for the 50% inhibitory concentration (IC50) with Plasmodium falciparum and in the data set on L6 were 0.46 µM and 50 µM, respectively. The Selectivity index in data set [3] turned out to be 227. The same molecule returned a microsomal CLint in data set [4] of 35 µL/min/mg.

Turning to `O=c1ccn(CCCCCCOC(c2ccccc2)(c2ccccc2)c2ccccc2)c(=O)[nH]1`, the Ki amounted to 9.6 µM on dUTP pyrophosphatase and 476 µM in data set [2]. The concentration for half-maximal inhibition (IC50) in the data set on Plasmodium falciparum was determined as 2.3 µM; with L6, 44 µM. The same molecule registered a Selectivity index in [3] of 50.
